From patent publication US9643960B2, “Procaspase activating compounds” (The Board of Trustees of the University of Illinois, priority 2009, dated 2017)
Read-outs that look alike come from different tables or passages of the source.

Tests used:
[1] = tested on: U937 human lymphoma cells; assay: Cell death assay in U937 cells (sulforhodamine B, 72 h); type: cell-based
Description: To each well was added 2 μL of 100× compound stock solutions in DMSO at varying concentrations so that the cells were treated with concentrations between 0 μM and 100 μM compound. Each concentration was tested in quintuplicate. In each plate 5 wells received 10 μM etoposide as a positive control and 5 wells received 2 μL of DMSO as a negative control. […] 1 Specifically, to each well of the plate was added 50 μL of an 80% (w/v) solution of TCA in H2O and the plates were allowed to rest at 4° C. overnight. The plates were then washed gently with a steam of H2O five times to remove the excess TCA and precipitated serum proteins. […] After staining, the wells were gently washed 5 times with 100 μL of 1% (v/v) acetic acid to remove the unbound dye. The plates were then allowed to air dry. […] The OD was then read at 510 nm in a Molecular Dynamics plate reader and the percent cell death calculated and normalized to the positive control (100% cell death) and the negative control (0% cell death). The percent cell death was averaged for each compound concentration and plotted as a function of compound concentration. The data were fit to a logistical dose response curve using Table curve 2D and the IC50 value was calculated. The experiment was repeated three times and the average of the calculated IC50 values was reported. The standard error of the mean (SEM) was determined and reported for the triplicate experiments.
U-937 cells grow in culture as a suspension.

caspase-3 = biological target: T1, caspase-3 (Homo sapiens, UniProt P42574); assay: Caspase-3 activity assay (relief of zinc mediated inhibition); type: biochemical; details: for activation at 10 µM: 10 μM compound, 2.5 μM zinc
T1 construct: Active caspase-3 is a homodimer of heterodimers and is produced by proteolysis of procaspase-3; 6xHis (C); made in house; host or cells: Escherichia coli BL21(DE3), plasmid pHC332
T1 sequence (P42574 29-175 limits assumed): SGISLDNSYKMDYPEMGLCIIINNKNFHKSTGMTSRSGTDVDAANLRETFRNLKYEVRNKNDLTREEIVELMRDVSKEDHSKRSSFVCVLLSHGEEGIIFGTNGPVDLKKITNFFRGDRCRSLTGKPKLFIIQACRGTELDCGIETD
T1 sequence (P42574 176-277 limits assumed): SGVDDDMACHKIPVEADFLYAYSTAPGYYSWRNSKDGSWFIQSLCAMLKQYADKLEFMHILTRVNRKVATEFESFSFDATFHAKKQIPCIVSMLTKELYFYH
Description: Caspase-3 Activity Assays—Zinc-free stocks (2×) of caspase-3 (1 μM) were prepared in Caspase Activity Buffer. Compound stock solutions were made (2×) at various concentrations from 200 μM to 200 nM in Caspase Activity Buffer. […] The plates were incubated at room temperature for 30 minutes. […] The data for each compound concentration (4 wells) was averaged and the percent activity was plotted as a function of compound concentration. The data was analyzed using Table Curve 2D and fitted to a logistical dose-response curve. […] The percent activity at 10 μM was determined for each compound and reported as an average of the three replicate experiments with the corresponding SEM.

SK-MEL-5 cells = assay: Live cell confocal imaging, colocalization with caspase-3/-7 activity; type: cell-based, human; details: 25 μM with FAM-DEVD-fmk
Description: Live Cell Imaging—SK-Mel-5 cells were grown on the bottom of no. 1 borosilicate growth chambers (Nunc) to a confluency of […]. Cells were then treated with DMSO, 25 μM FAM-DEVD-fmk in DMSO, 25 μM AF350-PAC-1 in DMSO, or both 25 μM FAM-DEVD-fmk and 25 μM AF350-PAC-1 concurrently for 1 hour at 37° C. and 5% CO2. Cells were then washed 5 times with RPMI 1640 growth media lacking phenol red. The cells were then allowed to further incubate at 37° C. for 2 hours before imaging. For cells stained with SYBR green for nuclear staining, a 1:100,000 dilution of SYBR green in media was added immediately prior to imaging. Cells were imaged on a Leica SP2 Multiphoton Confocal microscope.

[2] = EGTA fluorescence titration assay (zinc binding); details: read-out: Zinc Binding (KD) nM
[3] = Solubility in β-cyclodextran; type: physicochemical
[4] = biological target: T2, procaspase-3(D9A/D28A/D175A) mutant (Homo sapiens, UniProt P42574, D175A/D28A/D9A); assay: Procaspase-3 D3A mutant activity in the presence of zinc; type: biochemical; details: 10 μM zinc, S-PAC-1 added, monitored at 15 minute intervals
T2 construct: 6xHis (C); made in house; host or cells: Escherichia coli BL21(DE3) (printed for procaspase-3 in general, not for the mutant by name)
T2 sequence (P42574 1-277 D9A/D28A/D175A): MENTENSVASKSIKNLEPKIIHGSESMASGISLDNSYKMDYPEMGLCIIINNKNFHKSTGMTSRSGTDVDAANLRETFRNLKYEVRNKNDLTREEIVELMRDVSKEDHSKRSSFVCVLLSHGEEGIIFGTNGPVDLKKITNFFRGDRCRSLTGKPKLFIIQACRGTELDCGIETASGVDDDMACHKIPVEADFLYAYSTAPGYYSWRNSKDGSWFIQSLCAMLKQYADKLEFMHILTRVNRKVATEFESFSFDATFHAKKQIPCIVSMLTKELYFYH
From the text: Zinc ions are known to inhibit procaspase-3. […] The effect of a range of concentrations of zinc on caspase-3 and procaspase-3 enzymatic activity was examined. All buffers were first treated with Chelex® resin to remove any trace metal contaminants. […] To ensure that the activity of the proenzyme was being monitored, a proteolytically uncleavable mutant of procaspase-3 (in which the three aspartic acid cleavage site residues are mutated to alanine (D9A/D28A/D175A)) was used (24,32).

[5] = Pharmacokinetics of S-PAC-1 i.p. in mice; type: in vivo, mouse; details: C57/BL6 mice, 125 mg/kg i.p.
From the text: Mice were sacrificed and blood drawn at varying time points after administration. Blood samples were centrifuged and the serum was collected and analyzed by liquid chromatography to determine drug concentration.

[6] = Continuous-rate infusion pharmacokinetics in healthy research dogs; type: in vivo; details: hound, dog, plasma, continuous intravenous infusion, read-out: steady state plasma concentration
Description: Each dog received an initial loading dose via i.v. infusion over the course of 10 minutes followed by a maintenance dosage delivered by an infusion pump for an additional 24 hours.

[7] = Pharmacokinetics of S-PAC-1 in lymphoma bearing dogs; type: in vivo, dog; details: continuous infusion
From the text: In addition, blood was collected from all pet dogs at each scheduled follow up visit to characterize hematologic and non-hematologic toxicity. Between administrations, patients were monitored by pet owners for gastrointestinal toxicity observational scores adhering the Veterinary Co-operative oncology group common terminology and criteria for adverse events (VCOG_CTCAE) (44).

mice = details: cited from earlier work
[8] = Homo sapiens, U-937, 72 h, 72 h exposure, sulforhodamine B assay, read-out: U937 (IC50 μM)
[9] = Homo sapiens, U-937, 72 h, read-out: U937 (IC50 μM), 72 h exposure, sulforhodamine B assay

SMILES	activation at 10 µM (caspase-3) [%]	Kd [2] [nM]	IC50 [1, 8] [µM]	also measured
C=CCc1cccc(/C=N/NC(=O)CN2CCN(Cc3cccc(Cn4cc(CNC(=O)Cc5c(C)c6cc(S(=O)(=O)O)c(N)cc6oc5=O)nn4)c3)CC2)c1O [AF-PAC-1]	6.3	61	14.8	activation at 50 µM (caspase-3; 50 μM compound): 20%; colocalization with sites of caspase-3/-7 enzymatic activity (SK-MEL-5 cells): good colocalization
C=CCc1cc(/C=N/NC(=O)CN2CCN(Cc3ccccc3)CC2)c(O)c(CC=C)c1 [PAC-1-I-10]				IC50 [1, 9]: 1.8 ± 0.4 µM; IC50 ([1]; read-out: U937 (IC50 μM), 72 h exposure, sulforhodamine B assay): 1.6 ± 0.4 µM
C=CCc1cccc(/C=N/NC(=O)CN2CCN(Cc3cc(OC)ccc3OC)CC2)c1O [PAC-1-II-5]	31 ± 3.6	36	1 ± 0.1	Solubility in β-Cyclodextran (mg β-CD/μmol Compound) [3]: 15.2 mg β-CD/μmol Compound
C=CCc1cccc(/C=N/NC(=O)CN2CCN(Cc3cccc([N+](=O)[O-])c3)CC2)c1O [PAC-1-II-7]			4.6 ± 1	Solubility in β-Cyclodextran (mg β-CD/μmol Compound) [3]: 4.0 mg β-CD/μmol Compound
C=CCc1cccc(/C=N/NC(=O)CN2CCN(Cc3cccc(C(=O)O)c3)CC2)c1O [PAC-1-II-8]			2.3	Solubility in β-Cyclodextran (mg β-CD/μmol Compound) [3]: 5.6 mg β-CD/μmol Compound
COc1ccc(OC)c(CN2CCN(CC(=O)N/N=C/c3ccccc3O)CC2)c1 [PAC-1-III-1]				IC50 [1, 9]: 12 ± 2 µM
COc1cccc(/C=N/NC(=O)CN2CCN(Cc3cc(OC)c(OC)c(OC)c3)CC2)c1O [PAC-1-III-2]			27 ± 9.4	
COc1cc(O)c(/C=N/NC(=O)CN2CCN(Cc3cc(OC)c(OC)c(OC)c3)CC2)c(OC)c1 [PAC-1-III-3]			38 ± 6.2	
COc1ccc(OC)c(CN2CCN(CC(=O)N/N=C/c3c(O)cc(OC)cc3OC)CC2)c1 [PAC-1-III-4]			17.5	
COc1cccc(/C=N/NC(=O)CN2CCN(Cc3ccccc3CS(=O)(=O)c3ccccc3)CC2)c1O [PAC-1-III-5]			8.4 ± 1.6	
COc1cc(O)c(/C=N/NC(=O)CN2CCN(Cc3ccccc3CS(=O)(=O)c3ccccc3)CC2)c(OC)c1 [PAC-1-III-6]			5.5 ± 1.5	
C=CCc1cccc(/C=N/NC(=O)CN2CCN(Cc3ccc(S(N)(=O)=O)cc3)CC2)c1O [S-PAC-1, (E)-4-((4-(2-(2-(3-allyl-2-hydroxybenzylidene)hydrazinyl)-2-oxoethyl)piperazin-1-yl)methyl)benzenesulfonamide]				Solubility in β-Cyclodextran (mg β-CD/μmol Compound) [3]: 3.5 mg β-CD/μmol Compound; enzymatic activity of uncleavable procaspase-3 (D3A) [4]: rapidly (within 5 minutes) enhances the enzymatic activity of the proenzyme; S-PAC-1 in the blood at 4 hours post injection [5]: no S-PAC-1 remaining in the blood; concentration at 24 h [6]: ~15 µM; time to steady state from beginning of infusion [7]: ≤ 6 h
c1ccc(CN(CCN(Cc2ccccn2)Cc2ccccn2)Cc2ccccn2)nc1 [TPEN, N,N,N′,N′-tetrakis (2-pyridylmethyl)ethylenediamine]				Neurotoxicity (mice): severe neurotoxicity in mice at low concentrations and rapid death at higher concentrations
C=CCc1cccc(/C=N/NC(=O)CN2CCN(Cc3cccc(Cn4cc(CNC(=O)Cc5c(C)c6cc(S(=O)(=O)O)c(N)cc6oc5=O)nn4)c3)CC2)c1O [drawing 79]				IC50 ([1]; 72 h exposure, sulforhodamine B assay, read-out: U937 (IC50 μM)): 10.7 µM

Now from value to molecule, other results behind:

activation at 10 µM (caspase-3) [%]	Kd [2] [nM]	SMILES	IC50 [1, 8] [µM]	also measured
48 ± 3	76	C=CCc1cccc(/C=N/NC(=O)CN2CCN(Cc3ccccn3)CC2)c1O [PAC-1-II-1]	9.5 ± 1.8	
24.2 ± 1.7	96	C=CCc1cccc(/C=N/NC(=O)CN2CCN(Cc3ccc(F)cc3)CC2)c1O [PAC-1-II-4]	2 ± 0.2	
24 ± 3.4	41	C=CCc1cccc(/C=N/NC(=O)CN2CCN(Cc3ccc(OC)cc3)CC2)c1O [PAC-1-II-6]	2.7 ± 0.8	Solubility in β-Cyclodextran (mg β-CD/μmol Compound) [3]: 7.1 mg β-CD/μmol Compound
36 ± 3	50	C=CCc1cccc(/C=N/NC(=O)CN2CCC(Cc3ccccc3)CC2)c1O [PAC-1-IV-3]	2.7 ± 1.1	
4.1 ± 1		O=C(CN1CCN(Cc2ccccc2)CC1)NCCc1ccccc1O [PAC-1-IV-6]	> 100	
4.4 ± 0.9		O=C(CN1CCN(Cc2ccccc2)CC1)NCc1ccccc1O [PAC-1-IV-7]	> 100	
